This assay deals with T1, androgen receptor (Homo sapiens, UniProt P10275).
T1 sequence (P10275 1-920 Q868H): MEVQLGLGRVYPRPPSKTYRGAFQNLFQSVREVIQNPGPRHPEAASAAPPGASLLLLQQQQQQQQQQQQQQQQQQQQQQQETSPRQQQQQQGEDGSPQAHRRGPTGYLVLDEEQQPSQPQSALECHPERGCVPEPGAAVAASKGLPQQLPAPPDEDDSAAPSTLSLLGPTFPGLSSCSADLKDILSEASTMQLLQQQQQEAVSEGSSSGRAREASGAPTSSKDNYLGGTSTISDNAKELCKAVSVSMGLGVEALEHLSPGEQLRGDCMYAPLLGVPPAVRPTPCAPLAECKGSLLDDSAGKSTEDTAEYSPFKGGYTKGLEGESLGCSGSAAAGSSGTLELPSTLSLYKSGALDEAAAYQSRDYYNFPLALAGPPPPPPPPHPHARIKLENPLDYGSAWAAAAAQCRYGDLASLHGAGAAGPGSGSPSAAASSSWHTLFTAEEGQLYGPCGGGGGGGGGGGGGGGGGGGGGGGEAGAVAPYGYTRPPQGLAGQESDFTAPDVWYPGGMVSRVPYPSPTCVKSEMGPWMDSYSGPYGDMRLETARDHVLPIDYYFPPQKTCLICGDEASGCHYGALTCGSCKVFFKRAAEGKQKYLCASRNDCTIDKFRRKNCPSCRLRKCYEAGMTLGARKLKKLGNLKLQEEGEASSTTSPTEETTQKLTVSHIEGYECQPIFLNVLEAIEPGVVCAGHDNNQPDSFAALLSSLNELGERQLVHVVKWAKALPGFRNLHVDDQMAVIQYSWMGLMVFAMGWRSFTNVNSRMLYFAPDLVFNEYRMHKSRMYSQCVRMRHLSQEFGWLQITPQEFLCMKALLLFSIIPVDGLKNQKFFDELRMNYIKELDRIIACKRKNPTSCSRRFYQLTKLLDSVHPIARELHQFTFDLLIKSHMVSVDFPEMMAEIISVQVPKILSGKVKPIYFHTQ
In words: AR Antagonist Cell Assay (MMTV-luciferase reporter, inhibition of DHT induction). It is filed as cell-based. The following applies: MDA-MB453-MMTV clone 54-19 cells, 100 pM DHT, 17 hr, luciferase; read-out: Cell IC50. Here is the method: The compounds ability to antagonize the effects of androgen on the androgen receptor were determined in the protocol described immediately below.
Experimental Procedure for AR Antagonist Cell Assay
Cell line: MDA-MB453-MMTV clone 54–19. This cell line is a stable transfected cell line with MDA-MB453 cell background (human breast tumor cell expressing high level of androgen receptor). A MMTV minimal promoter containing ARE was first cloned in front of a firefly luciferase reporter gene. Then the cascade was cloned into transfection vector pUV120puro. Electroporation method was used for transfecting MDA-MB-453 cell. Puromycin resistant stable cell line was selected. Cell Culture Media and Reagents:
Culture medium: DMEM (high glucose, Gibco cat #: 11960-044), 10% FBS, and 1% L-glutamine
Plating medium: DMEM (phenol red free), 10% charcoal treated HyClone serum, 1% L-glutamine
Assay medium: DMEM (phenol red free), 1% charcoal treated HyClone serum, 1% L-glutamine, and 1% penicillin/streptomycin
3× luciferase buffer: 2% beta-mercaptoethanol, 0.6% ATP, 0.0135% luciferine in cell lysis buffer
• 1. Cells are maintained in culture medium, splitting cells when they reach 80–90% confluence • 2. To test compounds, 10,000 cells/well are plated to opaque 96 cell culture plate in 100 ul/well plating medium, culture for overnight at 37° C. in cell culture incubator • 3. Carefully remove plating medium, then add 80 ul/well of pre-warmed assay medium, add 10 ul/well testing compound (final concentration at 10 uM or 1 uM), incubate at 37° C. for 30 minutes • 4. Add 10 ul/well freshly prepared DHT (final concentration at 100 pM) to each well, incubate at 37° C. for 17 hr (overnight) • 5. Add 50 ul/well 3× luciferase buffer, incubate at room temperature for 5 minutes, then count on Luminometer The fold induction over background by 100 pM DHT in the absence of testing compounds is standardized as 100% and experimental result is expressed as percentage of inhibition by testing compounds.
In general terms: Reporter assays use an easily measured gene product as a stand-in for the process of interest.

Where only a bound is given, the exact number is not on record here.

In general, IC50 refers to the concentration that inhibits the measured activity by half.

Turning to `O=c1cc(C(F)(F)F)c2cc(S(=O)(=O)N3CCCC3CO)ccc2[nH]1` (stereo not shown) [Example 30, 6-(2-Hydroxymethyl-pyrrolidine-1-sulfonyl)-4-trifluoromethyl-1H-quinolin-2-one], the IC50 amounted to 2170 nM.

On to `O=c1cc(C(F)(F)F)c2cc(S(=O)(=O)N3CCC(N4CCCC4)CC3)ccc2[nH]1` [Example 13, 6-(4-Pyrrolidin-1-ylpiperidine-1-sulfonyl)-4-trifluoromethyl-1H-quinolin-2-one], for which the IC50 was more than 10000 nM.

Consider `CCOC(=O)C1CCN(S(=O)(=O)c2ccc3[nH]c(=O)cc(C(F)(F)F)c3c2)CC1` [Example 15, 1-(2-Oxo-4-trifluoromethyl-1,2-dihydroquinoline-6-sulfonyl)piperidine-4-carboxylic acid ethylester], for which the half-maximal inhibitory concentration (IC50) came out at 1260 nM.

On to `O=c1cc(C(F)(F)F)c2cc(S(=O)(=O)N3CCCC(CO)C3)ccc2[nH]1` (stereo not shown) [Example 25, 6-(3-Hydroxymethylpiperidine-1-sulfonyl)-4-trifluoromethyl-1H-quinolin-2-one], for which the IC50 was found to be 3540 nM.

For the molecule `O=c1cc(C(F)(F)F)c2cc(S(=O)(=O)N3CCCCCCC3)ccc2[nH]1` [Example 12, 6-(Azocane-1-sulfonyl)-4-trifluoromethyl-1H-quinolin-one], the IC50 came out at 1230 nM.

As for `COC(=O)[C@@H]1CCCN1S(=O)(=O)c1ccc2[nH]c(=O)cc(C(F)(F)F)c2c1` [Example 19, 1-(2-Oxo-4-trifluoromethyl-1,2-dihydroquinoline-6-sulfonyl)pyrrolidine-2-carboxylic acid methylester], the IC50 turned out to be 2240 nM.

On to `O=c1cc(C(F)(F)F)c2cc(S(=O)(=O)N3CCC4(CC3)OCCO4)ccc2[nH]1` [Example 22, 6-(1,4-Dioxa-8-azaspiro[4.5]decane-8-sulfonyl)-4-trifluoromethyl-1H-quinolin-2-one], for which the IC50 was found to be 1900 nM.

`O=c1cc(C(F)(F)F)c2cc(S(=O)(=O)N3CCN(Cc4ccco4)CC3)ccc2[nH]1` [Example 17, 6-(4-Furan-2-ylmethylpiperazine-1-sulfonyl)-4-trifluoromethyl-1H-quinolin-2-one]: the IC50 amounted to 2960 nM.

Turning to `O=c1cc(C(F)(F)F)c2cc(S(=O)(=O)N3CCCC3)ccc2[nH]1` [Example 33, 6-(Pyrrolidine-1-sulfonyl)-4-trifluoromethyl-1H-quinolin-2-one], the IC50 was found to be 310 nM.

Regarding `O=c1cc(C(F)(F)F)c2cc(S(=O)(=O)N3CCC3)ccc2[nH]1` [Example 39, 6-(Azetidine-1-sulfonyl)-4-trifluoromethyl-1H-quinolin-2-one], the half-maximal inhibitory concentration (IC50) came out at 430 nM.

Regarding `Cn1c(=O)cc(C(F)(F)F)c2cc(S(=O)(=O)N3CCSC3)ccc21` [Example 7, 1-Methyl-6-(thiazolidine-3-sulfonyl)-4-trifluoromethyl-1H-quinolin-2-one], the IC50 is more than 10000 nM.

As to `O=c1cc(C(F)(F)F)c2cc(S(=O)(=O)N3CCN(C4CCCC4)CC3)ccc2[nH]1` [Example 38, 6-(4-Cyclopentylpiperazine-1-sulfonyl)-4-trifluoromethyl-1H-quinolin-2-one], the IC50 is more than 10000 nM.

Regarding `Cn1c(=O)cc(C(F)(F)F)c2cc(S(=O)(=O)N3CCN(CCOCCO)CC3)ccc21` [Example 6, 6-{4-[2-(2-Hydroxyethoxy)-ethyl]piperazine-1-sulfonyl}-1-methyl-4-trifluoromethyl-1H-quinolin-2-one], the IC50 was more than 10000 nM.

`Cn1c(=O)cc(C(F)(F)F)c2cc(S(=O)(=O)N3CCCCCC3)ccc21` [Example 9, 6-(Azepane-1-sulfonyl)-1-methyl-4-trifluoromethyl-1H-quinolin-2-one]: the IC50 is more than 10000 nM.

Turning to `COc1cc2c(cc1OC)CN(S(=O)(=O)c1ccc3[nH]c(=O)cc(C(F)(F)F)c3c1)CC2` [Example 21, 6-(6,7-Dimethoxy-3,4-dihydro-1H-isoquinoline-2-sulfonyl)-4-trifluoromethyl-1H-quinolin-2-one], the IC50 came out at 480 nM.

Consider `Cn1c(=O)cc(C(F)(F)F)c2cc(S(=O)(=O)N3Cc4ccccc4C3)ccc21` [Example 4, 6-(1,3-Dihydroisoindole-2-sulfonyl)-1-methyl-4-trifluoromethyl-1H-quinolin-2-one], for which the IC50 is more than 10000 nM.

In the case of `O=c1cc(C(F)(F)F)c2cc(S(=O)(=O)N3CCN(c4ccccn4)CC3)ccc2[nH]1` [Example 40, 6-(4-Pyridin-2-ylpiperazine-1-sulfonyl)-4-trifluoromethyl-1H-quinolin-2-one], the half-maximal inhibitory concentration (IC50) was more than 10000 nM.

For the molecule `O=c1cc(C(F)(F)F)c2cc(S(=O)(=O)N3CCN(CCc4cccs4)CC3)ccc2[nH]1` [Example 32, 6-[4-(2-Thiophen-2-ylethyl)piperazine-1-sulfonyl]-4-trifluoromethyl-1H-quinolin-2-one], the IC50 came to 2660 nM.

As for `O=c1cc(C(F)(F)F)c2cc(S(=O)(=O)N3CCN(c4ccncc4)CC3)ccc2[nH]1` [Example 27, 6-(4-Pyridin-4-ylpiperazine-1-sulfonyl)-4-trifluoromethyl-1H-quinolin-2-one], the IC50 was more than 10000 nM.

Consider `O=c1cc(C(F)(F)F)c2cc(S(=O)(=O)N3CCSC3)ccc2[nH]1` [Example 26, 6-(Thiazolidine-3-sulfonyl)-4-trifluoromethyl-1H-quinolin-2-one], for which the IC50 was 160 nM.

Turning to `O=c1cc(C(F)(F)F)c2cc(S(=O)(=O)N3CCN(c4cnccn4)CC3)ccc2[nH]1` [Example 42, 6-(2,3,5,6-Tetrahydro-[1,2′]bipyrazinyl-4-sulfonyl)-4-trifluoromethyl-1H-quinolin-2-one], the IC50 was more than 10000 nM.

With `CC1CN(S(=O)(=O)c2ccc3c(c2)c(C(F)(F)F)cc(=O)n3C)CC(C)O1` (stereo not shown) [Example 10, 6-(2,6Dimethylmorpholine-4-sulfonly)-1-methyl-4-trifluoromethyl-1H-quinolin-2-one], the IC50 was more than 10000 nM.

Consider `CCN1CCN(S(=O)(=O)c2ccc3c(c2)c(C(F)(F)F)cc(=O)n3C)CC1` [Example 5, 6-(4-Ethylpiperazine-1-sulfonyl)-1-methyl-4-trifluoromethyl-1H-quinolin-2-one], for which the IC50 was more than 10000 nM.

On to `O=c1cc(C(F)(F)F)c2cc(S(=O)(=O)N3CCN(c4ccccc4)CC3)ccc2[nH]1` [Example 28, 6-(4-Phenylpiperazine-1-sulfonyl)-4-trifluoromethyl-1H-quinolin-2-one], for which the 50% inhibitory concentration (IC50) was more than 10000 nM.

`O=c1cc(C(F)(F)F)c2cc(S(=O)(=O)N3Cc4ccccc4C3)ccc2[nH]1` [Example 18, 6-(1,3-Dihydroisoindole-2-sulfonyl)-4-trifluoromethyl-1H-quinolin-2-one]: the IC50 is 490 nM.

Consider `Cn1c(=O)cc(C(F)(F)F)c2cc(S(=O)(=O)N3CCCc4ccccc43)ccc21` [Example 11, 6-(3,4-Dihydro-2H-quinoline-1-sulfonyl)-1-methyl-4-trifluoromethyl-1H-quinolin-2-one], for which the IC50 is more than 10000 nM.

`CCOC(=O)C1CCN(S(=O)(=O)c2ccc3c(c2)c(C(F)(F)F)cc(=O)n3C)CC1` [Example 3, 1-(1-Methyl-2-oxo-4-trifluoromethyl-1,2-dihydroquinoline-6-sulfonyl)piperidine-4-carboxylic acid ethyl ester]: the IC50 is more than 10000 nM.

In the case of `O=c1cc(C(F)(F)F)c2cc(S(=O)(=O)N3CCCC3CN3CCCC3)ccc2[nH]1` (stereo not shown) [Example 41, 6-(2-Pyrrolidin-1-ylmethyl-pyrrolidine-1-sulfonyl)-4-trifluoromethyl-1H-quinolin-2-one], the half-inhibitory concentration (IC50) was 3600 nM.

The record behind these values is patent US7064207B2, “Androgen receptor antagonists” (Warner Lambert Company LLC, priority 2003, dated 2006).
